# Assay results taken from patent publication US12558326B2, “Method for treating epilepsy” (Xenon Pharmaceuticals Inc., priority 2018, dated 2026).
# Values joined by “and” are separate entries in the source; they are usually repeats but may differ in a detail not shown here. Identical values can stand only once.
# Experiments:
# CF-1 mice = assay: 6 Hz seizure test (44 mA, 3 sec, corneal electrodes) in vivo; set-up: species or system mouse; details: 20 mg/kg IP; for percentage of animals protected against psychomotor seizures: one hour before assay, 6 Hz 44 mA, n=16 per group
# Excerpt: This assay tests the ability of a test compound to block a psychomotor seizure induced by long-duration, low frequency (6 Hz) stimulation, and provides an art-accepted model of therapy-resistant partial seizure (Brown et al., 1953 J. Pharmacol. Exp. Therapeut. 107(3):273-283; White H S, Woodhead J H, Wilcox K S, General principles: discovery and preclinical development of antiepileptic drugs, In: Levy R H, Mattson R H, Meldrum B S, Perucca E, editors. Antiepileptic drugs 5th ed Philadelphia: Lippincott Williams & Wilkins; 2002. pp. 36-48; Hartman et al., 2008 Epilepsia 49(2):334-339).
# Methods. Adult male CF1 mice (18-25 g) are pretreated intraperitoneally (i.p.) with the test compound at a dose of 20-100 mg/kg. If toxicity is noted in a pre-test screen for toxic effects when the test compound is administered i.p. at varying dosages, the dose is modified to avoid overt toxic effects. Each treatment group (n=4-16 mice/group) is examined for anticonvulsive effects at one or more of five time points (¼, ½, 1, 2, and 4 hr) after treatment with the test compound. Following pretreatment, each mouse receives a drop of 0.5% tetracaine hydrochloride applied to each eye. The mouse is then challenged with low-frequency (6 Hz) stimulation for 3 sec delivered through corneal electrodes. The low-frequency, long-duration stimuli are initially delivered at 32 mA intensity. Animals are manually restrained and released immediately following the stimulation and observed for the presence or absence of seizure activity. If the test compound is effective in the 32 mA screen, an additional assay is performed in which the stimulation current is increased to 44 mA but otherwise using the same protocol as described above. For dose-response studies, an n of 8 mice is used per dose and a dose-response curve is generated at the time of peak effect (TPE) at the specific stimulation intensity.
# Typically, the 6 Hz stimulation results in a seizure characterized by a minimal clonic phase that is followed by stereotyped, automatistic behaviors, including jaw clonus, forelimb clonus, twitching of the vibrissae, and/or Straub-tail. Animals not displaying such behaviors are considered protected. Seizure score can be used as an additional measure of the efficacy of the investigational compound (Racine, R. J. 1972 Electroencephalogr. Clin. Neurophysiol. 32(3):281-294). Data are analyzed by Mann-Whitney U test, with p<0.05 determined to be statistically significant. For data obtained at each time point, results are expressed as the total number of animals protected out of the number of animals tested over time (e.g., 2/4 represents 2 out of 4 mice tested are protected).
# In this Example, the in vivo anticonvulsant effects of candidate AEDs were tested in mice using the 6 Hz seizure test. The 6 Hz seizure test was performed essentially as described above in Biological Example 2, with minor modifications as presented here, including data collection at a time point that was one hour after administration of the candidate AEDs.
# Compounds: Candidate AED compounds were prepared as described above unless otherwise noted, and were as follows: • Racemic fenfluramine ([rac]-fenfluramine hydrochloride); • (R)-fenfluramine ([R]-(−)-fenfluramine hydrochloride); • Racemic norfenfluramine ([rac]-norfenfluramine) was purchased from Toronto Research Chemicals, North York, Ontario, Canada; • (R)-norfenfluramine ([R]-(−)-norfenfluramine.
# Animals: Adult male CF-1 albino mice (25-35 g) purchased from Harlan-Envigo (East Millstone, NJ). The mice were housed four per cage and had access to filtered water and chow ad libitum, throughout the experiment.
# Compound Preparation and Administration: All four compounds were solubilized in sterile aqueous saline solution (0.9% NaCl). Compounds were administered to animals (16 mice in each treatment group) via intraperitoneal (IP) injection at 10 ml/kg volume, one hour prior to the assay. Control animals received vehicle (saline) only. […]
# [1] = Brain and plasma distribution after the 6 Hz assay (UHPLC-ESI-MS/MS); assay type: in vivo, mouse; details: 20 mg/kg IP, total concentration, sampled immediately after 6 Hz assay (one hour post dose)
# Protocol: Pharmacological distribution and bioanalysis. Immediately following characterization of seizure behaviors in the 6 Hz assay, animals were humanely sacrificed and brain and plasma samples were collected for analysis of the distribution of the administered compounds to these tissue compartments.
# Brain sample homogenization. Pre-weighed whole mouse brains were thawed and 1 mL of deionized water and 1 mL of acetonitrile were added to each sample vial containing brain tissue. The samples were homogenized using a hand-held Omni™ TH homogenizer (Omni International, Kennesaw, GA, USA) until a uniform slurry was obtained. 1 mL aliquots of the slurry were transferred to clean 1.5 mL plastic Eppendorf tubes and the tubes were centrifuged at 13,000 rpm (15,871×g) for 20 minutes. The supernatant was collected and stored in clean labelled plastic Eppendorf vials at −80° C.
# Mouse plasma and brain homogenate sample preparation. Mouse brain homogenates and mouse plasma samples, as well as calibration standards and QC samples prepared from control (“blank”) untreated mouse plasma, were extracted by protein precipitation. Briefly, 50 μL of each brain homogenate and mouse plasma sample (as well as each calibration standard, QC sample and blank mouse plasma sample) was mixed with 50 μL of internal standard solution [a 2,500 ng/mL solution of (S)-5-((1-benzylpyrrolidin-3-yl)(methyl)amino)-6-methyl-N-(thiazol-4-yl)pyridine-2-sulfonamide in deionized water/acetonitrile (1:1 v/v)], followed by addition of 50 μL of 6% (v/v) phosphoric acid in water. This was followed by the addition of 200 μL of acetonitrile. The samples were vortexed for 30 seconds and then centrifuged for 20 min at 13,000 rpm (15,871×g). The supernatants were further diluted four-fold with acetonitrile:water (1:1 v/v) and transferred to a 96-well plate prior to analysis. Calibration and QC samples were prepared in blank K2EDTA mouse plasma in the concentration range from 2.3 ng/mL to 4800 ng/mL with QC samples, including low QC (14 ng/mL), mid QC (225 ng/mL), and high QC (3600 ng/mL).
# UHPLC-ESI-MS/MS analysis. Samples were then analyzed by ultra-high pressure liquid chromatography/electrospray ionization tandem mass spectroscopy (UHPLC-ESI MS/MS) using a Sciex™ TQ-5500 (AB Sciex™ LP, Concord, ON, Canada) mass spectrometer equipped with a Shimadzu Nexera™ UHPLC pump, column compartment and auto-sampler (Shimadzu Scientific Instruments, Inc., Columbia, MD, USA), using a binary gradient elution starting with 80% water (A)/20% acetonitrile (B), both solvents containing 0.1% formic acid. After 0.6 minutes, mobile phase B was increased linearly to 100% to 1 minute and elution was maintained at 100% mobile phase B until 1.5 minutes, and then allowed to re-equilibrate at the initial ration of 80% mobile phase A and 20% mobile phase B for a total run time of 2.5 minutes at a flow rate of 0.4 mL/min. The column used was ACE Excel™ 2 C18-PFP (2.1 mm i.d.×[…], 2 μm particle size)(Advanced Chromatography Technologies Ltd, Aberdeen, Scotland). The analytes and the internal standard were ionized by electrospray in the positive ion mode and detected by multiple reaction monitoring (MRM) using the transitions listed in Table 1.
# 5-HT2A receptor = 5-HT2A receptor (Homo sapiens, UniProt P28223); details: Rothman et al. 2002, 2003; cited from earlier work
# Sequence of 5-HT2A receptor (P28223 whole entry): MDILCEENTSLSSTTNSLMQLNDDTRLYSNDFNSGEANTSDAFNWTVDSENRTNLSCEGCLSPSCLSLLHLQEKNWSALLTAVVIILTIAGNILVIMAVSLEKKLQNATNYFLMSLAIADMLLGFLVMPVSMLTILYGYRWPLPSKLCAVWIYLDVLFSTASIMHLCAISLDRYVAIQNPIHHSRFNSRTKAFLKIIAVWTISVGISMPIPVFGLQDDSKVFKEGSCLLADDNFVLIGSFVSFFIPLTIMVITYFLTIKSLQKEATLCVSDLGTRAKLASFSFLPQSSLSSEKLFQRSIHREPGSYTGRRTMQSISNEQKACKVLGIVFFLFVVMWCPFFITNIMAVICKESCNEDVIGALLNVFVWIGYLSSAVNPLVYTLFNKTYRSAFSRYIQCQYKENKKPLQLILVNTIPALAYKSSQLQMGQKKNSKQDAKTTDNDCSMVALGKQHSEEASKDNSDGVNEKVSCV
# 5-HT2C receptor = molecular target: T1, 5-HT2C receptor (Homo sapiens, UniProt P28335); details: Rothman et al. 2002, 2003; cited from earlier work
# T1 sequence (P28335 33-458): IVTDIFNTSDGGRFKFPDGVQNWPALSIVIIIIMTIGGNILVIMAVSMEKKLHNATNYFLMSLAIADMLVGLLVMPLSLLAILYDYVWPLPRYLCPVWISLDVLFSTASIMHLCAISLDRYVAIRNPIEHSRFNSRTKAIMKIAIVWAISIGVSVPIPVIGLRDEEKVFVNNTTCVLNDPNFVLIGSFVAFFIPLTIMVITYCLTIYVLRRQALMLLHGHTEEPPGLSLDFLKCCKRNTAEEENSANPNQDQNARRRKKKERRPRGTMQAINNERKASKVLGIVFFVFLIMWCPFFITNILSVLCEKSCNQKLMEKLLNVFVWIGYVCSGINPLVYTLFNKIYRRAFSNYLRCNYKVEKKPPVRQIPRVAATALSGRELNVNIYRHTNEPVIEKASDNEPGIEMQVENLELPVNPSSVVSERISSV
# 5-HT2B receptor = 5-HT2B receptor (Homo sapiens, UniProt P41595); details: Rothman et al. 2002, 2003; cited from earlier work
# Sequence of 5-HT2B receptor (P41595 whole entry): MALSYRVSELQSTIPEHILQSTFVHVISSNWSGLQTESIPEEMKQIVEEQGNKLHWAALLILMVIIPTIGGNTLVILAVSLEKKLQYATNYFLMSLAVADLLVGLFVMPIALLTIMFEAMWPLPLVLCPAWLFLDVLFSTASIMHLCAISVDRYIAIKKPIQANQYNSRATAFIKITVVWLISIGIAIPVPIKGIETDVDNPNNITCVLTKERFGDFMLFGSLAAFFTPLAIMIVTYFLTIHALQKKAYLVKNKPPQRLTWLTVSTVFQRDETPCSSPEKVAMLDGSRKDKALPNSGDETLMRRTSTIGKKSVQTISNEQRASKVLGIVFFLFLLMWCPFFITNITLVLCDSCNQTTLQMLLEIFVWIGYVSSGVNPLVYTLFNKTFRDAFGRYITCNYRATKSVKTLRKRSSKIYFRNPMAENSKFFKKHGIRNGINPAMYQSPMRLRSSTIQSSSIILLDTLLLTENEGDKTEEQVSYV
# [2] = test system: norepinephrine (NE) release; details: Rothman et al. 2002, 2003; cited from earlier work
# DBA/2 mice = assay: Audiogenic seizure test in DBA/2 mice; assay type: in vivo, mouse; details: 180 mg/kg IP, 30 min prior
# Protocol: DBA/2 is a widely used inbred strain of mouse susceptible to audiogenic seizures due to the asp2 mutation. […] The objective of this study was to evaluate the anticonvulsant activity of (R/S)-fenfluramine and to compare it to (R)-fenfluramine in the DBA/2 mouse.
# The method follows that described by Dilrmuiller et al., Neuroreport 4(6):683-686. Mice (DBA/2, 3-4 weeks old) were individually transferred (at 3-5 minute intervals) from the preparation room into an adjacent experimental room and placed in a Plexiglas™ jar (Diameter=40 cm; Height=35 cm) mounted with an electric bell (110-120 dB). Upon activating the bell, the occurrences and latencies to wild running fits, clonic and tonic seizures were measured. The number of deaths was also recorded. An audiogenic response score was assigned to each mouse as 0 (no seizure), 1 (wild running), 2 (clonic convulsion), 3 (tonic extension), or 4 (death). The bell was activated until a tonic seizure occurred or for a maximum of 60 seconds. Ten (10) mice were studied per group. The test was performed blind. All test compounds were dissolved in 0.9% saline (vehicle) and were administered by intraperitoneal (IP) injection at a dose volume of 10 mL/kg. Vehicle alone, (R/S)-fenfluramine (15 or 30 mg/kg) or (R)-fenfluramine (30 mg/kg) were administered 60 minutes prior to seizure induction. The positive reference compound (valproate; 180 mg/kg) was administered 30 minutes prior to seizure induction.
# 6 Hz model = details: 30 min after i.p. injection; cited from earlier work
# MES test = details: in vivo; cited from earlier work
smiles,measurement,setting,value
"CC(N)Cc1cccc(C(F)(F)F)c1 (racemic) [(rac)-norfenfluramine, (R/S)-1-(3-(trifluoromethyl)phenyl)propan-2-amine]",percentage of animals protected against psychomotor seizures,CF-1 mice,50%
same,protective activity against seizures in the 6 Hz psychomotor seizure assay,CF-1 mice; summary statement,exhibited protective activity against seizures
same,Brain concentration,[1],151.2 μM and 30718 ng/g
same,Plasma concentration,[1],12.97 μM and 2636 ng/g
"C[C@@H](N)Cc1cccc(C(F)(F)F)c1 [(R)-norfenfluramine, (R)-1-(3-(trifluoromethyl)phenyl)propan-2-amine]",percentage of animals protected against psychomotor seizures,CF-1 mice,50%
same,Brain concentration,[1],179.6 μM and 36501 ng/g
same,Plasma concentration,[1],17.73 μM and 3604 ng/g
"C[C@H](N)Cc1cccc(C(F)(F)F)c1 [(S)-norfenfluramine, (S)-1-((3-trifluoromethyl)phenyl)propan-2-amine]",5-HT2A agonist activity,5-HT2A receptor,potent
same,5-HT2C agonist activity,5-HT2C receptor,potent
same,5-HT2B agonist activity,5-HT2B receptor,potent
same,NE release-promoting activity,[2],potent
CCCC(CCC)C(=O)O [Valproate],Clonic Convulsion Incidence,DBA/2 mice; n=10,0%
same,Tonic Extension Incidence,DBA/2 mice; n=10,0%
same,Wild Running Incidence,DBA/2 mice; n=10,40%
same,Clonic Convulsion Latency,"DBA/2 mice; mean ± SEM, maximum 60 s",60.0 ± 0.0 s
same,Tonic Extension Latency,"DBA/2 mice; mean ± SEM, maximum 60 s",60.0 ± 0.0 s
same,Wild Running Latency,"DBA/2 mice; mean ± SEM, maximum 60 s",38.1 ± 9.0 s
same,Audiogenic Response Score,"DBA/2 mice; score 0-4, mean ± SEM, n=10",0.4 ± 0.16
CC[C@@H](C(N)=O)N1CCCC1=O [levetiracetam],ED50,6 Hz model,19 mg/kg
same,efficacy in the MES test,MES test,ineffective
